In patent US8288375B2, “Fungicidal bicyclic pyrazoles” (E.I. du Pont de Nemours and Company, priority 2007, dated 2012):

Assays:
Format in all cases: in vivo
[1] = test system: Colletotrichum orbiculare; test: Test F: cucumber Colletotrichum anthracnose, test suspension sprayed on cucumber seedlings, disease rating; details: 200 ppm test suspension
[2] = test system: Erysiphe graminis f. sp. tritici; test: Test A: wheat powdery mildew, test suspension sprayed on wheat seedlings, disease rating; details: 200 ppm test suspension; 100 = 100% disease control, 0 = no control
[3] = test system: Phytophthora infestans; test: whole plant or invertebrate; details: 200 ppm test suspension
[4] = test system: Septoria nodorum; test: Test D: wheat glume blotch, test suspension sprayed on wheat seedlings, disease rating; details: 200 ppm test suspension
[5] = test system: Puccinia recondite f sp. tritici; test: Test B: wheat leaf rust, test suspension sprayed on wheat seedlings, disease rating; details: 200 ppm test suspension;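 further: 200 ppm unless marked * meaning 40 ppm or ** meaning 10 ppm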
[6] = test system: Rhizoctonia oryzae; test: Test I: turf brown patch, test suspension sprayed on creeping bent grass seedlings, disease rating; details: 200 ppm test suspension
[7] = test system: Botrytis cinerea; test: Test H: tomato Botrytis, test suspension sprayed on tomato seedlings, disease rating; details: 200 ppm test suspension
[8] = test system: Plasmopara viticola; test: Test K: grape downy mildew, grape seedlings inoculated and then sprayed, disease rating; details: 200 ppm test suspension
[9] = test system: Fusarium graminearum; test: whole plant or invertebrate; details: 200 ppm test suspension
[10] = test system: Pythium aphanidermatum; test: Test L: bluegrass pythium blight, test suspension sprayed on bluegrass seedlings, disease rating; details: 200 ppm test suspension;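 further: 200 ppm unless marked * meaning 40 ppm or ** meaning 10 ppm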

Row | Compound | Test F disease control rating [1] | Test A disease control rating [2] | Test J disease control rating [3] | Test D disease control rating [4] | Test B disease control rating [5] | Test I disease control rating [6] | Test H disease control rating [7] | Test K disease control rating [8] | Test C disease control rating [9] | Test L disease control rating [10]
1 | NCCNc1nccc(-c2c(-c3ccc(F)cc3)nn3c2CCCC3)n1 [compound 16] | 0% | 20% | 91% | 0% | 99% | 0% | 19% | 0% | 99% | 70%
2 | CCC(C)Nc1nccc(-c2c(-c3ccc(F)cc3)nn3c2CCCC3)n1 (centres unmarked) [compound 19] | 66% | 26% | 31% | 98% | 99% | 0% | 74% | 0% | 100% | 93%
3 | Fc1ccc(-c2nn3c(c2-c2ccnc(NC4CC4)n2)CCC3)c(F)c1 [compound 94] | 24% | 82% | 99% | 98% | 97% | 16% | 96% | 0% | 100% | 99%
4 | CC(C)Nc1nccc(-c2c(-c3ccc(F)cc3)nn3c2CCC3)n1 [compound 91] | 16% | 74% | 0% | 98% | 99% | 0% | 99% | 0% | 100% | 88%
5 | Fc1ccc(-c2nn3c(c2-c2ccnc(NC4CC4)n2)CCC3)cc1 [compound 92] | 80% | 94% | 99% | 99% | 99% | 0% | 90% | 0% | 100% | 99%
6 | C=CCNc1nccc(-c2c(-c3ccc(F)cc3)nn3c2CCCC3)n1 [compound 15] | 17% | 86% | 97% | 98% | 99% | 0% | 92% | 0% | 100% | 100%
7 | CCC(C)Nc1nccc(-c2c(-c3ccc(F)cc3)nn3c2CCCC3)n1 (centres unmarked) [compound 20] | 88% | 78% | 99% | 99% | 99% | 0% | 96% | 0% | 100% | 100%
8 | CNc1nccc(-c2c(-c3ccc(F)cc3)nn3c2CCC3)n1 [compound 90] | 17% | 96% | 99% | 100% | 99% | 0% | 0% | 0% | 100% | 97%
9 | COc1ccc(-c2nn3c(c2-c2ccnc(NC4CC4)n2)CCC3)cc1 [compound 93] | 0% | 0% | 95% | 0% | 0% | 0% | 0% | 0% | 99% | 90%
10 | CCC(C)Nc1nccc(-c2c(-c3ccc(F)cc3)nn3c2CCC3)n1 (centres unmarked) [compound 85] | 88% | 0% | 67% | 82% | 99% | 16% | 52% | 0% | 100% | 100%
11 | Nc1nccc(-c2c(-c3ccc(F)cc3)nn3c2CCCC3)n1 [compound 10] | 0% | 90% | 64% | 87% | 99% | 0% | 63% | 0% | 99% | 42%
12 | CCNc1nccc(-c2c(-c3ccc(F)cc3)nn3c2CCCC3)n1 [compound 18] | 98% | 96% | 99% | 97% | 100% | 0% | 74% | 0% | 100% | 100%
13 | C=CCNc1nccc(-c2c(-c3ccc(F)cc3)nn3c2CCC3)n1 [compound 95] | 21% | 68% | 99% | 99% | 100% | 0% | 87% | 0% | 100% | 95%
14 | COCC(C)Nc1nccc(-c2c(-c3ccc(F)cc3)nn3c2CCC3)n1 (centres unmarked) [compound 84] | 98% | 60% | 93% | 99% | 99% | 16% | 52% | 0% | 100% | 100%
15 | COCC(C)Nc1nccc(-c2c(-c3ccc(F)cc3F)nn3c2CCC3)n1 (centres unmarked) [compound 88] | 0% | 0% | 100% | 60% |  | 0% | 21% | 0% | 100% | 99%
16 | CCC(C)Nc1nccc(-c2c(-c3ccc(F)cc3F)nn3c2CCC3)n1 (centres unmarked) [compound 87] | 0% | 0% | 94% | 78% |  | 0% | 0% | 0% | 99% | 99%
